Laboratory results published in patent US20240270751A1, “Pyrazolopyridinone Compounds” (BeiGene Ltd., priority 2021, published 2024).

Columns and labels:
[1] = target: DGKα (Homo sapiens (Human), UniProt P23743); test: Biochemical DGK IC50 assay, DGKα ADP-Glo assay; conditions: 7.5 nM enzyme, 140 μM ATP, 80 μM DAG
Procedure: (§1) Enzymatic reactions of DGKζ, DGKα and DGKδ were performed using ADP-Glo assay with lipid micelle substrate. […] Full length DGKα (D21-10BG, SignalChem) and full length DGKδ (D23-10G, SignalChem) were purchased. Lipid micelle was prepared by dissolving DAG (Sigma, 317505-10MG) and PS (Sigma, P7769-100MG) with chloroform which was furtherly removed by rotary evaporation. The resulted product was resuspended in buffer containing 25 mM HEPES pH 7.0, 0.5 mM EDTA and 160 mM Octyl β-D glucopyranoside by vigorous mixing and ultrasonic (IID, Scientz).
(§2) The ranges of compounds final concentration were 1.55˜10000 nM or 23.3˜150000 nM. 3 μL 2× enzyme solution was added to wells.

[2] = target: DGKζ (Homo sapiens (Human), UniProt Q13574); test: Biochemical DGK IC50 assay, DGKζ ADP-Glo assay; conditions: 0.5 nM enzyme, 140 μM ATP, 80 μM DAG; read-out: DGKζ ADP-Glo assay IC50
DGKζ, sequence (Q13574 other isoform, or with tags, fused parts or gaps): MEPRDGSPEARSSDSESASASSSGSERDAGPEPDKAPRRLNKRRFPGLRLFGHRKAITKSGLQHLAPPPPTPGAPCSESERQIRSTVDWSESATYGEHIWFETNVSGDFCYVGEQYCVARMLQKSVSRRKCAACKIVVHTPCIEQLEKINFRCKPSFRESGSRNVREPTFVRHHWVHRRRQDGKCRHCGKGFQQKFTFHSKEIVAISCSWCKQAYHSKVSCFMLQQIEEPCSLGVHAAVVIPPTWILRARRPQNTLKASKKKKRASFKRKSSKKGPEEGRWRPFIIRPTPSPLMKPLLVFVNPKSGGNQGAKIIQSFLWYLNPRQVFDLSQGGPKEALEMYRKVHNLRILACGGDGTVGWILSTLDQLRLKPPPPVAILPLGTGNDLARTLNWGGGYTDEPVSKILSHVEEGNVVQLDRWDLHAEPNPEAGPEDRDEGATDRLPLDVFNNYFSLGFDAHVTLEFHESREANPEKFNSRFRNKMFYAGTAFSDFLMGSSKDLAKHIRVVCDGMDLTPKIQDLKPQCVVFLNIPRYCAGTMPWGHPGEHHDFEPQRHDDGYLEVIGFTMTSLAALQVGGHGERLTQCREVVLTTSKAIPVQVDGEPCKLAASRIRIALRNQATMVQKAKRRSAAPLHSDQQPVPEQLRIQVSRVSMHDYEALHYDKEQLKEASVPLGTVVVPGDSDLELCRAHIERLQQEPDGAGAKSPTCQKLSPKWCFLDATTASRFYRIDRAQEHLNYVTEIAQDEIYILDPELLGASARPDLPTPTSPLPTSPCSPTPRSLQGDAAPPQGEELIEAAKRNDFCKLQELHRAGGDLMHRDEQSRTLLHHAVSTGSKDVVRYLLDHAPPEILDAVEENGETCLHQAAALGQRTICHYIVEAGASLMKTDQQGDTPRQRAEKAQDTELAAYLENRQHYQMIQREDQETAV
Procedure: as §1, §2
Human His-TEV-DGK-zeta-pFastBac1 and human baculovirus samples was generated using the Bac-to-Bac baculovirus expression system (Invitrogen) according to the manufacturer's protocol. The DNA used for expression of DGK-zeta, have SEQ ID Nos: 1. Baculovirus amplification was achieved using infected SF9 cells at 1:2000 virus/cells ratios, and grown for 96 hours at 27° C. post-transfected.
The expression scaled up for each protein was carried out in the […] from CORNING. 4 L of 3×10^6 cells/mL Sf9 cells (Expression System, Invitrogen) grown in SF900™ II SFM insect medium (Expression System) was infected with virus stock at 1:200 virus/cells ratio, and grown for 48 hours at 27° C. post-transfection. The infected cell culture was harvested by centrifugation at 6000 rpm for 15 min 4° C. in a SORVALL LYNX6000 centrifuge. The cell pellets were stored at −80° C.
Full length human DGKζ produced as described above, was purified from Sf9 baculovirus-infected insect cell paste. The cells were lysed using sonication method, and the lysates were clarified by centrifugation.

DGKα, sequence (P23743 whole entry): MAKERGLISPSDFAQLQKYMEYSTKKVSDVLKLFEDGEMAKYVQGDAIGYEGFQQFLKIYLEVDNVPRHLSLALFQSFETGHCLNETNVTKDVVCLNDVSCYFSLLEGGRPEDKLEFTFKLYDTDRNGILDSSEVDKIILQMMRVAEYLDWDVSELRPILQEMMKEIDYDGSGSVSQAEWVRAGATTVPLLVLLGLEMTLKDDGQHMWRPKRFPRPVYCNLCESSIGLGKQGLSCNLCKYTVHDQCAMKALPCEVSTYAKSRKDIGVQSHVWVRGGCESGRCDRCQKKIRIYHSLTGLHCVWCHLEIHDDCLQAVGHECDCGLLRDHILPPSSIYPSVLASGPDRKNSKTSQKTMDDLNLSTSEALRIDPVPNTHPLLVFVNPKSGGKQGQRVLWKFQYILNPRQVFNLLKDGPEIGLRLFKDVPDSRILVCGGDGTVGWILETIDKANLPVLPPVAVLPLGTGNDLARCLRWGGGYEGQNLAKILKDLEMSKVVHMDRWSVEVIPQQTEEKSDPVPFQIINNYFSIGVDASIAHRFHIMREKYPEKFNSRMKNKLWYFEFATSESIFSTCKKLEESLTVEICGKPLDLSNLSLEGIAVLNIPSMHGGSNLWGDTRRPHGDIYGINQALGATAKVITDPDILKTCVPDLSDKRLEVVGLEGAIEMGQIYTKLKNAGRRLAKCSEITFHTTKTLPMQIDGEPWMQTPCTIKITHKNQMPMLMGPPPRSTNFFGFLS

SMILES	IC50 [1]	IC50 [2]
C[C@@H]1CN(c2cc(=O)n(C)c3c(Cl)n(CC#N)nc23)[C@@H](C)CN1[C@H](C)c1ccc2nccnc2c1 [Compound A263, 2-(3-chloro-7-((2S,5R)-2,5-dimethyl-4-((R)-1-(quinoxalin-6-yl)ethyl)piperazin-1-yl)-4-methyl-5-oxo-4,5-dihydro-2H-pyrazolo[4,3-b]pyridin-2-yl)acetonitrile, or 2-(3-chloro-7-((2S,5R)-2,5-dimethyl-4-((S)-1-(quinoxalin-6-yl)ethyl)piperazin-1-yl)-4-methyl-5-oxo-4,5-dihydro-2H-pyrazolo[4,3-b]pyridin-2-yl)acetonitrile]	41800 nM	85 nM
CC[C@H]1CN(C(C)c2cc3ccccc3c(C)n2)[C@H](CC)CN1c1cc(=O)n(C)c2cn(CC#N)nc12 (stereo partly drawn) [Compound A367]	19300 nM	3590 nM
CC[C@H]1CN(C(C)c2c(C)cnn2CC)[C@H](CC)CN1c1cc(=O)n(C)c2cn(CC#N)nc12 (single isomer, unassigned) [Compound A227b]	> 10000 nM	691 nM
CCO[C@@H]1CN(c2cc(=O)n(C)c3cn(CC#N)nc23)CC[C@H]1Oc1cccc(C(F)(F)F)c1 [Compound A295, 2-(7-((3R,4R)-3-ethoxy-4-(3-(trifluoromethyl)phenoxy)piperidin-1-yl)-4-methyl-5-oxo-4,5-dihydro-2H-pyrazolo[4,3-b]pyridin-2-yl)acetonitrile]	5690 nM	563 nM
CC[C@H]1CN(C(C)c2ccc(F)cc2C(F)(F)F)[C@H](CC)CN1c1cc(=O)n(C)c2cn(CC#N)nc12 (single isomer, unassigned) [Compound A196b]	93200 nM	38 nM
CC[C@H]1CN(C(C)c2ccc(F)cc2OC(F)F)[C@H](CC)CN1c1cc(=O)n(C)c2cn(CC#N)nc12 (single isomer, unassigned) [Compound A171b]	> 10000 nM	1360 nM
CC[C@H]1CN(C(C)c2ccc(C)cc2F)[C@H](CC)CN1c1cc(=O)n(C)c2cn(CC#N)nc12 (stereo partly drawn) [Compound A340]	485 nM	248 nM
CC[C@H]1CN(C(C)c2nc3ccccc3n2CC)[C@H](CC)CN1c1cc(=O)n(C)c2cn(CC#N)nc12 (stereo partly drawn) [Compound A144, 2-(7-((2S,5R)-2,5-diethyl-4-(1-(1-ethyl-1H-benzo[d]imidazol-2-yl)ethyl)piperazin-1-yl)-4-methyl-5-oxo-4,5-dihydro-2H-pyrazolo[4,3-b]pyridin-2-yl)acetonitrile]	105000 nM	42 nM
C[C@@H]1CN(c2nc(=O)n(C)c3c(Cl)n(CC#N)nc23)[C@@H](C)CN1[C@H](C)c1ccc2nccnc2c1 [Compound A245, 2-(3-chloro-7-((2S,5R)-2,5-dimethyl-4-((R)-1-(quinoxalin-6-yl)ethyl)piperazin-1-yl)-4-methyl-5-oxo-4,5-dihydro-2H-pyrazolo[4,3-d]pyrimidin-2-yl)acetonitrile, or 2-(3-chloro-7-((2S,5R)-2,5-dimethyl-4-((S)-1-(quinoxalin-6-yl)ethyl)piperazin-1-yl)-4-methyl-5-oxo-4,5-dihydro-2H-pyrazolo[4,3-d]pyrimidin-2-yl)acetonitrile]	> 10000 nM	87 nM
CC[C@H]1CN(C(C)c2ncccc2COC)[C@H](CC)CN1c1cc(=O)n(C)c2cn(CC#N)nc12 (stereo partly drawn) [Compound A93]	> 10000 nM	3660 nM
CC[C@H]1CN(C(C)c2ccc(OC3CCOCC3)cc2)[C@H](CC)CN1c1cc(=O)n(C)c2cn(CC#N)nc12 (stereo partly drawn) [Compound A380]	161 nM	667 nM
CC[C@H]1CN(C(C)c2nc3cccc(C(F)(F)F)c3n2CC)[C@H](CC)CN1c1cc(=O)n(C)c2cn(CC#N)nc12 (single isomer, unassigned) [Compound A230b]	6200 nM	494 nM
CCC(c1ccc(C(C)(C)C#N)cc1)N1C[C@H](CC)N(c2cc(=O)n(C)c3cn(CC#N)nc23)C[C@H]1CC (stereo partly drawn) [Compound A339, 2-(4-(1-((2R,5S)-4-(2-(cyanomethyl)-4-methyl-5-oxo-4,5-dihydro-2H-pyrazolo[4,3-b]pyridin-7-yl)-2,5-diethylpiperazin-1-yl)propyl)phenyl)-2-methylpropanenitrile]	5360 nM	361 nM
CC[C@H]1CN([C@H](C)c2ncccc2OC)[C@H](CC)CN1c1cc(=O)n(C)c2cn(CC#N)nc12 (single isomer, unassigned) [Compound A92b]	> 10000 nM	
COc1cc(F)ccc1C(C)N1C[C@H](C)N(c2cc(=O)n(C)c3cn(CC#N)nc23)C[C@H]1C (stereo partly drawn) [Compound A248, 2-(7-((2S,5R)-4-(1-(2-omethoxy-4-fluorophenyl)ethyl)-2,5-dimethylpiperazin-1-yl)-4-methyl-5-oxo-4,5-dihydro-2H-pyrazolo[4,3-b]pyridin-2-yl)acetonitrile]	> 10000 nM	
CC[C@H]1CN([C@H](C)c2nc(Cl)cn2CC)[C@H](CC)CN1c1cc(=O)n(C)c2cn(CC#N)nc12 (single isomer, unassigned) [Compound A191b]	> 10000 nM	
Cc1nc2ccc(C(C)N3C[C@H](C)N(c4cc(=O)n(C)c5cn(CC#N)nc45)C[C@H]3C)cn2n1 (mixture of isomers) [Compound A321]	> 150000 nM	

Continued, values first:

IC50 [1]	IC50 [2]	SMILES
1490 nM	1190 nM	CC(c1cc2ccccc2cn1)N1C[C@H](C)N(c2cc(=O)n(C)c3cn(CC#N)nc23)C[C@H]1C (stereo partly drawn) [Compound A305]
59600 nM	2140 nM	CC(c1ccc2c(c1)OC(C)(C)CO2)N1C[C@H](C)N(c2cc(=O)n(C)c3cn(CC#N)nc23)C[C@H]1C (single isomer, unassigned) [Compound A46f]
> 10000 nM	194 nM	CCC(c1ccc2nccnc2c1)N1C[C@H](C)N(c2cc(=O)n(C)c3cn(CC#N)nc23)C[C@H]1C (stereo partly drawn) [Compound A255]
> 10000 nM	> 10000 nM	CC(c1ccc2ncc(O)nc2c1)N1C[C@H](C)N(c2cc(=O)n(C)c3cn(CC#N)nc23)C[C@H]1C (stereo partly drawn) [Compound A279, 2-(7-((2S,5R)-4-(1-(3-hydroxyquinoxalin-6-yl)ethyl)-2,5-dimethylpiperazin-1-yl)-4-methyl-5-oxo-4,5-dihydro-2H-pyrazolo[4,3-b]pyridin-2-yl)acetonitrile]
2300 nM	270 nM	CC(c1ccc2cccnc2c1)N1C[C@H](C)N(c2cc(=O)n(C)c3cn(CC#N)nc23)C[C@H]1C (stereo partly drawn) [Compound A40]
9000 nM	13000 nM	CC(c1ccc2nccnc2c1)N1C[C@H](C)N(c2cc(=O)n(C)c3cn(C4CC4)nc23)C[C@H]1C (stereo partly drawn) [Compound A17, 2-cyclopropyl-7-((2S,5R)-2,5-dimethyl-4-(1-(quinoxalin-6-yl)ethyl)piperazin-1-yl)-4-methyl-2,4-dihydro-5H-pyrazolo[4,3-b]pyridin-5-one]
1200 nM	8100 nM	COCc1ccc(C(C)N2C[C@H](C)N(c3cc(=O)n(C)c4cn(CC#N)nc34)C[C@H]2C)cc1 (stereo partly drawn) [Compound A31]
> 10000 nM	2350 nM	CC(c1ccc2nccnc2c1)N1C[C@H](C(F)F)N(c2cc(=O)n(C)c3cn(CC#N)nc23)C[C@H]1C (stereo partly drawn) [Compound A261, 2-(7-((2R,5R)-2-(difluoromethyl)-5-methyl-4-(1-(quinoxalin-6-yl)ethyl)piperazin-1-yl)-4-methyl-5-oxo-4,5-dihydro-2H-pyrazolo[4,3-b]pyridin-2-yl)acetonitrile]
> 10000 nM	1370 nM	CC(c1ccc(F)cc1C(F)F)N1C[C@H](C)N(c2cc(=O)n(C)c3cn(CC#N)nc23)C[C@H]1C (stereo partly drawn) [Compound A252]
4200 nM	9.3 nM	CC[C@H]1CN(C(C)c2ccc3nccnc3c2)[C@H](CC)CN1c1cc(=O)n(CC)c2cn(CC#N)nc12 (stereo partly drawn) [Compound A47, 2-(7-((2S,5R)-2,5-diethyl-4-(1-(quinoxalin-6-yl)ethyl)piperazin-1-yl)-4-ethyl-5-oxo-4,5-dihydro-2H-pyrazolo[4,3-b]pyridin-2-yl)acetonitrile]
> 10000 nM	3960 nM	CC[C@@H]1CN(c2cc(=O)n(C)c3cn(CC#N)nc23)[C@@H](C)CN1C(C)c1ccc(F)cc1C(F)(F)F (single isomer, unassigned) [Compound A218b]
94700 nM	127 nM	CC(c1ccc2ncc(C3CC3)nc2c1)N1C[C@H](C)N(c2cc(=O)n(C)c3cn(CC#N)nc23)C[C@H]1C (stereo partly drawn) [Compound A310, 2-(7-((2S,5R)-4-(1-(3-cyclopropylquinoxalin-6-yl)ethyl)-2,5-dimethylpiperazin-1-yl)-4-methyl-5-oxo-4,5-dihydro-2H-pyrazolo[4,3-b]pyridin-2-yl)acetonitrile]
5100 nM	110 nM	COCc1cc(C(C)N2C[C@H](C)N(c3cc(=O)n(C)c4cn(CC#N)nc34)C[C@H]2C)ccc1F (stereo partly drawn) [Compound A30]
> 10000 nM		CC[C@H]1CN([C@H](C)c2ccc3nccnc3c2)[C@H](CC)CN1c1cc(=O)n(C(C)C)c2cn(CC#N)nc12 (single isomer, unassigned) [Compound A190b]
